For one assay, the target named is T1, CDK2/Cyclin E (Homo sapiens, UniProt P24941).
T1 construct: His; made in house; host or cells: Sf9 insect cells (baculovirus)
The assay can be described thus: CDK2/cyclin E kinase assay (GST-Rb phosphorylation).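 Further: enzyme source: His-tagged CDK2/cyclin E complex co-expressed recombinantly in Sf9 insect cells using baculovirus constructs.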 In kind it is biochemical. To be noted: Table 3; read-out: Average IC50 CDK2 cyclin E1.

The target in the next assay is CDK4/Cyclin D1 (Homo sapiens, UniProt P11802). The assay is described as follows: CDK4/cyclin D1 kinase assay (GST-Rb phosphorylation). In kind it is biochemical. To be noted: Table 3; read-out: Average IC50 CDK4 cyclin D1.
Chain of CDK4/Cyclin D1 (P11802 whole entry, species assumed): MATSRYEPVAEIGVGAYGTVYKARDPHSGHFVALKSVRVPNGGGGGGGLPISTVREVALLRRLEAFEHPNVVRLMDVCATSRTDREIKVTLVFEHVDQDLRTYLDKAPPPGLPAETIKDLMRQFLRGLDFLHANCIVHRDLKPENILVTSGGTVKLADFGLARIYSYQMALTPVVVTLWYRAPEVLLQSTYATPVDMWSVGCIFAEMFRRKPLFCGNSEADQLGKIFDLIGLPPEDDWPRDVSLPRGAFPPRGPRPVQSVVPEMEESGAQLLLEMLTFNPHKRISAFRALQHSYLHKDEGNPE
Chain of CDK4/Cyclin D1 (P24385 whole entry partner, species assumed): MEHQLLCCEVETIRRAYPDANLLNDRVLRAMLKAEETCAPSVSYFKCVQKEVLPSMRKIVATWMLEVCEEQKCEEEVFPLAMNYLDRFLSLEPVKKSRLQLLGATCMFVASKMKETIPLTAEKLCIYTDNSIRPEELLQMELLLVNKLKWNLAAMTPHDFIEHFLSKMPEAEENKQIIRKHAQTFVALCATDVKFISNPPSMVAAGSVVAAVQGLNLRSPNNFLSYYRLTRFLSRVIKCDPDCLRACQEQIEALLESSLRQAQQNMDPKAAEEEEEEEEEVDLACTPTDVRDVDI
For another assay, the target named is CDK7/cyclin H (Homo sapiens, UniProt P50613). The assay is described as follows: CDK7 assay (CTD peptide substrate). In kind it is biochemical. The protocol: (§1) CTD peptide substrate (biotinyl-Ahx-(Tyr-Ser-Pro-Thr-Ser-Pro-Ser)4-NH2; 1-2 mg/mL) and recombinant human CDK7/cyclin H, CDK9/cyclin T1, or CDK9/cyclin K (0.5-2 μg) were incubated for 45 min at 30° C. in the presence of varying amounts of test compound in 20 mM MOPS pH 7.2, 25 mM β-glycerophosphate, 5 mM EGTA, 1 mM DTT, 1 mM sodium vanadate, 15 mM MgCl2, and 100 μM ATP (containing a trace amount of ^32PγATP) in a total volume of 25 μL in a 96-well microtiter plate. The reaction was stopped by placing the plate on ice for 2 min. Avidin (50 μg) was added to each well, and the plate was incubated at room temp for 30 min. The samples were transferred to a 96-well P81 filter plate, and washed (4×200 μL per well) with 75 mM phosphoric acid. Microscint 40 scintillation liquid (50 μL) was added to each well, and the amount of ^32P incorporation for each sample was measured using a Packard Topcount microplate scintillation counter.
Chain of CDK7/cyclin H (P50613 whole entry): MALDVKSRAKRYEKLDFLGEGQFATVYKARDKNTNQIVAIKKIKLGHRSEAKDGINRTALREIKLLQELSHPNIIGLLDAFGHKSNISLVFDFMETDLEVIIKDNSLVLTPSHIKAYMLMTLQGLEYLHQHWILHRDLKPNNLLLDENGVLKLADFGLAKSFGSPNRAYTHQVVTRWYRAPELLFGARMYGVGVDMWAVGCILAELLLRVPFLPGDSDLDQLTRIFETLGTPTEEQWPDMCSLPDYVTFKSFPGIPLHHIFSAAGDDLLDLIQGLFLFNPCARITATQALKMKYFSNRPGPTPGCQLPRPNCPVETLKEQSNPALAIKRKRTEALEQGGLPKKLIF
Chain of CDK7/cyclin H (P51946 whole entry partner): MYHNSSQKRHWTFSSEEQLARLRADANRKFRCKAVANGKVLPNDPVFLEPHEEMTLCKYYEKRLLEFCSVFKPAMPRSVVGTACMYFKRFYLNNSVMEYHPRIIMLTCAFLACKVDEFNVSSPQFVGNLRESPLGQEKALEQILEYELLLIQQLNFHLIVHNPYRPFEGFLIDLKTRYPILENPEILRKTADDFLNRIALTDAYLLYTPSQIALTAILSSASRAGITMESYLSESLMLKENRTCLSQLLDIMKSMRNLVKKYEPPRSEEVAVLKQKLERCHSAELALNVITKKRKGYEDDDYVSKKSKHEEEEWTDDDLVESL

The target of another assay is CDK1/Cyclin B (Homo sapiens, UniProt P06493). The assay can be described thus: CDK1/cyclin B kinase assay (GST-Rb phosphorylation).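 Further: Enzyme: His-tagged CDK1/Cyclin B co-expressed in baculovirus-infected Sf9 insect cells, purified via metal-chelate chromatography.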
Chain of CDK1/Cyclin B (P06493 whole entry, species assumed): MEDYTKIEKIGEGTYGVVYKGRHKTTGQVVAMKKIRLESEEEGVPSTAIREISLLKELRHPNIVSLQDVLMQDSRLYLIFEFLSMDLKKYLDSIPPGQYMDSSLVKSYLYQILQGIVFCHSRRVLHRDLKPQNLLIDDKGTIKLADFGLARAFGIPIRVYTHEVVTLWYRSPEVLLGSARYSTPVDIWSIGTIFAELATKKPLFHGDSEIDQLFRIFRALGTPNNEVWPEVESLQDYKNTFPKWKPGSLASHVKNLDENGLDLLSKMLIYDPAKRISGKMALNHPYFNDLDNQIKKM
Chain of CDK1/Cyclin B (P14635 whole entry partner, species assumed): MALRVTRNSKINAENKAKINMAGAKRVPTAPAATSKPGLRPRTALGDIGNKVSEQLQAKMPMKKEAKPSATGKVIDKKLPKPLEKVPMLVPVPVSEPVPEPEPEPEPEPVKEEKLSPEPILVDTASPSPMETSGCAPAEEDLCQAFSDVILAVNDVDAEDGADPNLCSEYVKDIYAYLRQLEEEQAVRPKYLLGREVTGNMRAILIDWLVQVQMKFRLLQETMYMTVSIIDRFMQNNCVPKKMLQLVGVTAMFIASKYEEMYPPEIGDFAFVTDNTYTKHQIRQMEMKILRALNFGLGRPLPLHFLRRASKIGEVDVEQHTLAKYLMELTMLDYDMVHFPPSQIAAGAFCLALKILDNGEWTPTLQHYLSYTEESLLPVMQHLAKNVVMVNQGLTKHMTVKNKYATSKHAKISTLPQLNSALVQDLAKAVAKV
For a further assay, the target named is CDK9/cyclin T1 (Homo sapiens, UniProt P50750). The assay is described as follows: CDK9 assay (CTD peptide substrate). In kind it is biochemical. As to the method:
as §1

[1] abbreviates: Table 3, read-out: Average IC50 CDK7 cyclin H.
[2] abbreviates: Table 3, read-out: Average IC50 CDK9 cyclin T1.

The values below come from patent US20050288307A1, “Anti-viral compounds” (priority 2002, published 2005).

Each structure is given as a SMILES string. Like-named read-outs stand apart in the source and are kept apart here.

Chain of CDK9/cyclin T1 (P50750 whole entry): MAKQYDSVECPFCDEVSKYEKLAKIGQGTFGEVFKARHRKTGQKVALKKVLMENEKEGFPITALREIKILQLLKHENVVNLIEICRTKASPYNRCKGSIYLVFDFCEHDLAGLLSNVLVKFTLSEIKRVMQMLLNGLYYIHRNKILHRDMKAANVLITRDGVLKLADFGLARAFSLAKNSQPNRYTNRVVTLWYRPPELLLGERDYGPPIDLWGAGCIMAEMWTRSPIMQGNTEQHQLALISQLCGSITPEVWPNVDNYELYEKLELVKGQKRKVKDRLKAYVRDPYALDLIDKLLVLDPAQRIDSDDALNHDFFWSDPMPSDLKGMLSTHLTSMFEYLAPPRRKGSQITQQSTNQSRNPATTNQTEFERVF
Chain of CDK9/cyclin T1 (O60563 whole entry partner): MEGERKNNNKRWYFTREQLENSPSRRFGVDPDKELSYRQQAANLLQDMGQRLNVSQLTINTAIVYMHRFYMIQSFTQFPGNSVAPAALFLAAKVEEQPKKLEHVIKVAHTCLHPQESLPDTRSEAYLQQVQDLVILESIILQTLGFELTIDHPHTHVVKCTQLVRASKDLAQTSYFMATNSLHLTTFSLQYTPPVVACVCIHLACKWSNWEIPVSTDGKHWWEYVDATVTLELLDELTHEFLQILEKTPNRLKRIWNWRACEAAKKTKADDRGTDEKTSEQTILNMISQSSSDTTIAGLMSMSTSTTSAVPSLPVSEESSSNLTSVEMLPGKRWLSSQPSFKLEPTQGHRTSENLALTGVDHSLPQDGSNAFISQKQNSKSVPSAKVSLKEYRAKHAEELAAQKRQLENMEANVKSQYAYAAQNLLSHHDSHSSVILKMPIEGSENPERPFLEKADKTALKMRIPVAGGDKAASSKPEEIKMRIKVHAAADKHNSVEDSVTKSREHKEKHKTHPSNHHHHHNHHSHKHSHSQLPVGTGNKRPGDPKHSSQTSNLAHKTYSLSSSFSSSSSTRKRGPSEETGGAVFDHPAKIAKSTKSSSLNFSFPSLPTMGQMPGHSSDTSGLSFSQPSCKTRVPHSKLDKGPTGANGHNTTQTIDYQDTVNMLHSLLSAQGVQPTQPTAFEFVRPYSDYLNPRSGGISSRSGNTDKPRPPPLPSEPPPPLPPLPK
Protocol for CDK1/Cyclin B: (§2) His-tagged CDK2/Cyclin E and CDK1/Cyclin B may be co-expressed and PKCα singularly expressed in Sf 9 insect cells infected with the appropriate baculovirus constructs. The cells are harvested two days after infection by low speed centrifugation and the proteins purified from the insect cell pellets by Metal-chelate chromatography. Briefly, the insect cell pellet is lysed in Buffer A (10 mM Tris-HCl, pH 8.0, 150 mM NaCl, 0.02% NP40 and 5 mM β-marcaptoethanol, 1 mM NaF. 1 mM Na3VO4 and Protease Inhibitors Coctail (Sigma) containing AEBSF, pepstatin A, E 64, bestatin, leupeptin) by sonication. The soluble fraction is cleared by centrifugation and loaded onto Ni-NTA-Agarose (Quiagen). Non bound proteins were washed off with 300 mM NaCl, 5-15 mM Imidazole in Buffer A and the bound proteins eluted with 250 mM Imidazole in Buffer A. The purified proteins are extensively dialyzed against Storage buffer (20 mM HEPES pH 7.4, 50 mM NaCl, 2 mM DTT, 1 mM EDTA, 1 mM EGTA, 0.02% NP40, 10% v/v Glycerol) aliquoted and stored at −70° C.
Protocol for CDK2/Cyclin E: as §2

For `Cc1nc(C)c(-c2ccnc(Nc3cccc(Cl)c3)n2)s1` [Compound 3, (3-Chloro-phenyl)-[4-(2,4-dimethyl-thiazol-5-yl)-pyrimidin-2-yl]-amine], the IC50 at CDK2/Cyclin E is 5.6 µM; at CDK4/Cyclin D1 it was over 50 µM; on CDK7/cyclin H (setting [1]), over 100 µM; against CDK1/Cyclin B, 32 µM.

Consider `Cc1nc(C)c(-c2ccnc(Nc3ccc(F)cc3)n2)s1` [Compound 8, [4-(2,4-Dimethyl-thiazol-5-yl)-pyrimidin-2-yl]-(4-fluoro-phenyl)-amine], for which the IC50 amounted to 16 µM at CDK7/cyclin H (setting [1]), 0.31 µM on CDK9/cyclin T1 (setting [2]) and 17 µM on CDK1/Cyclin B.

With `Cc1nc(C)c(-c2ccnc(Nc3cccc(O)c3)n2)s1` [Compound 27, 3-[4-(2,4-Dimethyl-thiazol-5-yl)-pyrimidin-2-ylamino]-phenol], the IC50 on CDK7/cyclin H (setting [1]) is 3.2 µM; at CDK9/cyclin T1 (setting [2]) it was 0.24 µM; against CDK1/Cyclin B, 1.2 µM.

Regarding `Cc1nc(C)c(-c2ccnc(Nc3ccc(O)c([N+](=O)[O-])c3)n2)s1` [Compound 32, 4-[4-(2,4-Dimethyl-thiazol-5-yl)-pyrimidin-2-ylamino]-2-nitro-phenol], the IC50 stood at 0.38 µM at CDK4/Cyclin D1, 0.055 µM on CDK9/cyclin T1 (setting [2]) and 14 µM against CDK1/Cyclin B.

Take `Cc1nc(C)c(-c2ccnc(Nc3ccc(C#N)cc3)n2)s1` [Compound 35, 4-[4-(2,4-Dimethyl-thiazol-5-yl)-pyrimidin-2-ylamino]-benzonitrile]: the IC50 on CDK2/Cyclin E is 8 µM; on CDK4/Cyclin D1, over 50 µM; on CDK1/Cyclin B it was over 50 µM.

In the case of `COC(=O)c1ccc(Nc2nccc(-c3sc(C)nc3C)n2)cc1` [Compound 37, 4-[4-(2,4-Dimethyl-thiazol-5-yl)-pyrimidin-2-ylamino]-benzoic acid methyl ester], the figures for the IC50 on CDK2/Cyclin E, at CDK4/Cyclin D1 and against CDK1/Cyclin B were 7.5 µM, 17 µM and 38 µM, respectively.

As to `COc1ccc(Nc2nccc(-c3sc(C)nc3C)n2)cc1Cl` [Compound 39, (3-Chloro-4-methoxy-phenyl)-[4-(2,4-dimethyl-thiazol-5-yl)-pyrimidin-2-yl]-amine], the values for the IC50 on CDK2/Cyclin E, at CDK4/Cyclin D1 and against CDK1/Cyclin B were 5.6 µM, over 50 µM and 40 µM, respectively.

As to `CNc1nc(C)c(-c2ccnc(Nc3ccc(O)cc3)n2)s1` [Compound 48, 4-[4-(4-Methyl-2-methylamino-thiazol-5-yl)-pyrimidin-2-ylamino]-phenol], the half-maximal inhibitory concentration (IC50) amounted to 0.86 µM on CDK7/cyclin H (setting [1]) and 0.076 µM at CDK9/cyclin T1 (setting [2]).

For the compound `CNc1nc(C)c(-c2ccnc(Nc3ccc(O)c([N+](=O)[O-])c3)n2)s1` [Compound 58, 4-[4-(4-Methyl-2-methylamino-thiazol-5-yl)-pyrimidin-2-ylamino]-2-nitro-phenol], the IC50 at CDK2/Cyclin E turned out to be 1.5 µM; at CDK9/cyclin T1 (setting [2]), 0.061 µM.

For `CNc1nc(C)c(-c2ccnc(Nc3cccc([N+](=O)[O-])c3)n2)s1` [Compound 61, [4-(4-Methyl-2-methylamino-thiazol-5-yl)-pyrimidin-2-yl]-(3-nitro-phenyl)-amine], the IC50 on CDK2/Cyclin E came out at 2.1 µM; at CDK9/cyclin T1 (setting [2]) it was 0.19 µM.

`CNc1nc(C)c(-c2ccnc(Nc3cccc(Br)c3)n2)s1` [Compound 68, (3-Bromo-phenyl)-[4-(4-methyl-2-methylamino-thiazol-5-yl)-pyrimidin-2-yl]-amine]: the IC50 was determined as 27 µM at CDK2/Cyclin E and 0.01 µM at CDK9/cyclin T1 (setting [2]).

Take `CNc1nc(C)c(-c2ccnc(Nc3cccc(OC)c3)n2)s1` [Compound 73, (3-Methoxy-phenyl)-[4-(4-methyl-2-methylamino-thiazol-5-yl)-pyrimidin-2-yl]-amine]: the 50% inhibitory concentration (IC50) at CDK2/Cyclin E amounted to 0.31 µM; on CDK9/cyclin T1 (setting [2]), 0.48 µM.

As to `CNc1nc(C)c(-c2ccnc(Nc3cccc(F)c3)n2)s1` [Compound 87, (3-Fluoro-phenyl)-[4-(4-methyl-2-methylamino-thiazol-5-yl)-pyrimidin-2-yl]-amine], the IC50 at CDK2/Cyclin E turned out to be 1.3 µM; at CDK9/cyclin T1 (setting [2]) it was 0.063 µM.

`Cc1nc(N)sc1-c1ccnc(Nc2ccc(O)cc2)n1` [Compound 98, 4-[4-(2-Amino-4-methyl-thiazol-5-yl)-pyrimidin-2-ylamino]-phenol]: the IC50 at CDK7/cyclin H (setting [1]) turned out to be 1 µM; at CDK9/cyclin T1 (setting [2]), 0.045 µM.

`Cc1nc(C)c(-c2ccnc(Nc3cccc(NC(=N)N)c3)n2)s1` [Compound 99, N-{3-[4-(2,4-Dimethyl-thiazol-5-yl)-pyrimidin-2-ylamino]-phenyl}-guanidine]: the results for the IC50 at CDK7/cyclin H (setting [1]) and on CDK9/cyclin T1 (setting [2]) were 0.31 µM and 0.26 µM, respectively.

On to `Cc1nc(C)c(-c2ccnc(Nc3ccc(Cc4ccncc4)cc3)n2)s1` [Compound 101, [4-(2,4-Dimethyl-thiazol-5-yl)-pyrimidin-2-yl]-(4-pyridin-4-ylmethyl-phenyl)-amine], for which the results for the IC50 at CDK2/Cyclin E and on CDK4/Cyclin D1 were 0.69 µM and 1.1 µM, respectively.

On to `Cc1nc(C)c(-c2ccnc(Nc3ccc([N+](C)(C)C)cc3)n2)s1` [Compound 104, {4-[4-(2,4-Dimethyl-thiazol-5-yl)-pyrimidin-2-ylamino]-phenyl}-trimethyl-ammonium], for which the IC50 at CDK7/cyclin H (setting [1]) came to 0.39 µM; at CDK9/cyclin T1 (setting [2]), 0.14 µM.

Consider `Cc1nc(N)sc1-c1ccnc(Nc2ccc(C(F)(F)F)cc2)n1` [Compound 110, [4-(2-Amino-4-methyl-thiazol-5-yl)-pyrimidin-2-yl]-(4-trifluoromethyl-phenyl)-amine], for which the IC50 on CDK2/Cyclin E is 0.68 µM; on CDK4/Cyclin D1, 5.8 µM.

Turning to `Cc1nc(N)sc1-c1ccnc(Nc2cccc(Cl)c2)n1` [Compound 112, [4-(2-Amino-4-methyl-thiazol-5-yl)-pyrimidin-2-yl]-(3-chloro-phenyl)-amine], the IC50 at CDK2/Cyclin E is 0.018 µM; at CDK4/Cyclin D1, 0.071 µM.

In the case of `Cc1nc(N)sc1-c1ccnc(Nc2cccc(I)c2)n1` [Compound 113, [4-(2-Amino-4-methyl-thiazol-5-yl)-pyrimidin-2-yl]-(3-iodo-phenyl)-amine], the IC50 on CDK7/cyclin H (setting [1]) is 0.59 µM.

As for `Cc1nc(N)sc1-c1ccnc(Nc2ccc(Br)cc2)n1` [Compound 120, [4-(2-Amino-4-methyl-thiazol-5-yl)-pyrimidin-2-yl]-(4-bromo-phenyl)-amine], the IC50 worked out at 1 µM at CDK2/Cyclin E and 1.6 µM on CDK4/Cyclin D1.

With `CCN(CC)CCOc1ccc(Nc2nccc(-c3sc(C)nc3C)n2)cc1` [Compound 122, [4-(2-Diethylamino-ethoxy)-phenyl]-[4-(2,4-dimethyl-thiazol-5-yl)-pyrimidin-2-yl]-amine], on CDK7/cyclin H (setting [1]), the IC50 stood at 0.44 µM.

Take `Cc1nc(C)c(-c2ccnc(Nc3ccc(N(C)C)c([N+](=O)[O-])c3)n2)s1` [Compound 127, N^4-[4-(2,4-Dimethyl-thiazol-5-yl)-pyrimidin-2-yl]-N^1,N^1-dimethyl-2-nitro-benzene-1,4-diamine]: the figures for the IC50 on CDK7/cyclin H (setting [1]) and against CDK1/Cyclin B were 1.5 µM and 0.13 µM, respectively.

Regarding `CCNc1nc(C)c(-c2ccnc(Nc3ccc(Cl)cc3)n2)s1` [Compound 134, (4-Chloro-phenyl)-[4-(2-ethylamino-4-methyl-thiazol-5-yl)-pyrimidin-2-yl]-amine], the IC50 turned out to be 2 µM on CDK2/Cyclin E, 5.9 µM at CDK9/cyclin T1 (setting [2]) and 22 µM against CDK1/Cyclin B.

In the case of `Cc1nc(N(C)C)sc1-c1ccnc(Nc2ccc(Cl)cc2)n1` [Compound 141, (4-Chloro-phenyl)-[4-(2-dimethylamino-4-methyl-thiazol-5-yl)-pyrimidin-2-yl]-amine], the 50% inhibitory concentration (IC50) worked out at 3.9 µM at CDK2/Cyclin E and 4.8 µM on CDK4/Cyclin D1.

For the compound `Cc1nc(N(C)C)sc1-c1ccnc(Nc2ccc(F)cc2)n1` [Compound 142, [4-(2-Dimethylamino-4-methyl-thiazol-5-yl)-pyrimidin-2-yl]-(4-fluoro-phenyl)-amine], the figures for the IC50 at CDK2/Cyclin E and at CDK4/Cyclin D1 were 1.3 µM and 4 µM, respectively.

For `Cc1nc(N(C)C)sc1-c1ccnc(Nc2cccc(Cl)c2)n1` [Compound 143, (3-Chloro-phenyl)-[4-(2-dimethylamino-4-methyl-thiazol-5-yl)-pyrimidin-2-yl]-amine], the IC50 at CDK2/Cyclin E amounted to 0.89 µM; on CDK4/Cyclin D1, 5.4 µM.

`Cc1nc(N)sc1-c1ccnc(Nc2ccc([N+](=O)[O-])cc2)n1` [Compound 151, [4-(2-Amino-4-methyl-thiazol-5-yl)-pyrimidin-2-yl]-(4-nitro-phenyl)-amine]: the IC50 is 0.18 µM at CDK2/Cyclin E and over 50 µM at CDK4/Cyclin D1.

With `COc1ccc(Nc2nccc(-c3sc(=O)n(C)c3C)n2)cc1` [Compound 157, 5-[2-(4-Methoxy-phenylamino)-pyrimidin-4-yl]-3,4-dimethyl-3H-thiazol-2-one], the IC50 worked out at 2 µM at CDK7/cyclin H (Table 4, read-out: Kinase Inhibition IC50 CDK7-cyclin H) and 0.78 µM on CDK1/Cyclin B.

On to `Cc1cc(Nc2nccc(-c3sc(=O)n(C)c3C)n2)ccc1F` [Compound 162, 5-[2-(4-Fluoro-3-methyl-phenylamino)-pyrimidin-4-yl]-3,4-dimethyl-3H-thiazol-2-one], for which the IC50 at CDK9/cyclin T1 (Table 4, read-out: Kinase Inhibition IC50 CDK9-cyclin T1) is 0.079 µM.

One may read the IC50 as the midpoint of a concentration-inhibition curve.
